Results as given in patent US20220033397A1, “PHARMACEUTICAL COMPOUNDS AND THEIR USE AS INHIBITORS OF UBIQUITIN SPECIFIC PROTEASE 19 (USP19)” (ALMAC DISCOVERY LIMITED, priority 2018, published 2022).

Molecular target: T1, Full-length USP19 (Homo sapiens, UniProt O94966)
T1 construct: Full-length USP19 was purchased from Boston Biochem (E-576); purchased Boston Biochem E-576
T1 sequence (O94966 1-1318): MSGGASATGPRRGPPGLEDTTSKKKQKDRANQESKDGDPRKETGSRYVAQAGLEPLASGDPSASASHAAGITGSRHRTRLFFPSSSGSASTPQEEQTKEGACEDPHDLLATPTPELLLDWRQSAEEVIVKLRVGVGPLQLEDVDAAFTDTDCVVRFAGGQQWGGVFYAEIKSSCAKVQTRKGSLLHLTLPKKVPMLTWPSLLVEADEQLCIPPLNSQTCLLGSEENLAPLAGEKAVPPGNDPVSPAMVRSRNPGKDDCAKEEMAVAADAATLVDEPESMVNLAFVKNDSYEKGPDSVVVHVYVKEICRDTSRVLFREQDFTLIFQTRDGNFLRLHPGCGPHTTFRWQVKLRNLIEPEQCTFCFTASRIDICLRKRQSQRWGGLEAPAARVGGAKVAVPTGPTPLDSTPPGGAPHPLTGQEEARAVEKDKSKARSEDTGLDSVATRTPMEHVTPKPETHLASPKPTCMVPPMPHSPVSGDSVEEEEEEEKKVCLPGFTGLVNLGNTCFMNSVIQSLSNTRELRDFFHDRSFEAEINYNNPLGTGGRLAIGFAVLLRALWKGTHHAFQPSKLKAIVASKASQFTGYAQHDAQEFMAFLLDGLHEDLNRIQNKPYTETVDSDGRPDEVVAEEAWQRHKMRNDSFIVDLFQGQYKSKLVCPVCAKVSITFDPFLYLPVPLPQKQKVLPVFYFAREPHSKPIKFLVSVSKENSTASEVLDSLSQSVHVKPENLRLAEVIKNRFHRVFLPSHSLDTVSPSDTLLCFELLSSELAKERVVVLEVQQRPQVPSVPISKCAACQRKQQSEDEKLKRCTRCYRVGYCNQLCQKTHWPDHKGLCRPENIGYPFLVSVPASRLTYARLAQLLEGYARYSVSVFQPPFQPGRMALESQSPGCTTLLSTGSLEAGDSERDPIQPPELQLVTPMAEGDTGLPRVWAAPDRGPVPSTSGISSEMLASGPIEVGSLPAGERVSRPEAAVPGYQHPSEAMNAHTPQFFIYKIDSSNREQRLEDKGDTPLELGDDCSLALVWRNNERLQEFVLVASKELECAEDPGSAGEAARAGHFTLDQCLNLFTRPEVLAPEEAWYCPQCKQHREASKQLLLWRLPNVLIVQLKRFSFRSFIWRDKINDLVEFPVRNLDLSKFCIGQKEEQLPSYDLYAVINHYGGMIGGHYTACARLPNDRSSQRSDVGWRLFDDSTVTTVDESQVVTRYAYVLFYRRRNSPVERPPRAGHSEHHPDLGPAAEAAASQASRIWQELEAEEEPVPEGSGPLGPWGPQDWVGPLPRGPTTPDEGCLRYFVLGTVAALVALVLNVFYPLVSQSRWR
Assay: USP19 fluorescence polarisation (FP) homogeneous assay with Ubiquitin-Lys-TAMRA substrate
Assay type: biochemical
Settings: 2.5 nM USP19, 30 min pre-incubation, average of at least two duplicate experiments
Outline: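 Full-length USP19 preincubated 30 min at RT with inhibitor (200 μM to 2 μM series, 8–18 points) before adding 500 nM Ubiquitin-Lys-TAMRA substrate.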

| Structure (SMILES) | IC50 |
| --- | --- |
| O=C(N1CC[C@@](O)(Cn2cnc(-c3ccccc3)cc2=O)C2(CCCC2)C1)N1CCS(=O)(=O)CC1c1ccccc1 (stereo partly drawn) [Example 335, (S)-3-((7-(1,1-Dioxido-3-phenylthiomorpholine-4-carbonyl)-10-hydroxy-7-azaspiro[4.5]decan-10-yl)methyl)-6-phenylpyrimidin-4(3H)-one] | < 500 nM |
| O=C(N1CC[C@@](O)(Cn2cnc(-c3ccccc3)cc2=O)C2(CCCC2)C1)N1CCNCC1c1ccc(C(F)(F)F)cc1 (stereo partly drawn) [Example 336, 3-(((10S)-10-Hydroxy-7-(2-(4-(trifluoromethyl)phenyl)piperazine-1-carbonyl)-7-azaspiro[4.5]decan-10-yl)methyl)-6-phenylpyrimidin-4(3H)-one] | < 500 nM |
| COc1cccc(-c2cc(=O)n(C[C@]3(O)CCN(C(=O)N4CCNC[C@H]4c4ccccc4)CC34CCCC4)cn2)c1 [Example 338, 3-(((S)-10-Hydroxy-7-((R)-2-phenylpiperazine-1-carbonyl)-7-azaspiro[4.5]decan-10-yl)methyl)-6-(3-methoxyphenyl) pyrimidin-4(3H)-one] | < 500 nM |
| Cc1ccccc1-c1cc(=O)n(C[C@]2(O)CCN(C(=O)N3CCNC[C@H]3c3ccccc3)CC23CCCC3)cn1 [Example 340, 3-(((S)-10-Hydroxy-7-((R)-2-phenylpiperazine-1-carbonyl)-7-azaspiro[4.5]decan-10-yl)methyl)-6-(o-tolyl)pyrimidin-4(3H)-one] | < 500 nM |
| COc1ccc(-c2cc(=O)n(C[C@]3(O)CCN(C(=O)N4CCNC[C@H]4c4ccccc4)CC34CCCC4)cn2)s1 [Example 345, 3-(((S)-10-Hydroxy-7-((R)-2-phenylpiperazine-1-carbonyl)-7-azaspiro[4.5]decan-10-yl)methyl)-6-(5-methoxythiophen-2-yl)pyrimidin-4(3H)-one] | < 500 nM |
| O=C(N1CC[C@@](O)(Cn2cnc(-c3ccc4c(c3)CCO4)cc2=O)C2(CCCC2)C1)N1CCNC[C@H]1c1ccccc1 [Example 346, 6-(2,3-Dihydrobenzofuran-5-yl)-3-(((S)-10-hydroxy-7-((R)-2-phenylpiperazine-1-carbonyl)-7-aza-spiro[4.5]decan-10-yl)methyl)pyrimidin-4(3H)-one] | < 500 nM |
| O=C(N1CC[C@@](O)(Cn2cnc(-c3ccc4c(c3)COC4)cc2=O)C2(CCCC2)C1)N1CCNC[C@H]1c1ccccc1 [Example 347, 6-(1,3-Dihydro-isobenzofuran-5-yl)-3-(((S)-10-hydroxy-7-((R)-2-phenylpiperazine-1-carbonyl)-7-aza-spiro[4.5]decan-10-yl)methyl)pyrimidin-4(3H)-one] | < 500 nM |
| O=C(N1CC[C@@](O)(Cn2cnc(N3CCCCC3)cc2=O)C2(CCCC2)C1)N1CCNC[C@H]1c1ccccc1 [Example 348, 3-(((S)-10-Hydroxy-7-((R)-2-phenylpiperazine-1-carbonyl)-7-aza-spiro[4.5]decan-10-yl)methyl)-6-(piperi-din-1-yl)pyrimidin-4(3H)-one] | < 500 nM |
| O=C(N1CC[C@@](O)(Cn2cnc(-c3ccc(OC4CC4)cc3)cc2=O)C2(CCCC2)C1)N1CCNC[C@H]1c1ccccc1 [Example 350, 6-(4-Cyclo-propoxyphenyl)-3-(((S)-10-hydroxy-7-((R)-2-phenylpipera-zine-1-carbonyl)-7-azaspiro[4.5]decan-10-yl)methyl)pyrimi-din-4(3H)-one] | < 500 nM |
| O=C(N1CC[C@@](O)(Cn2cnc(N3CCC(F)(F)CC3)cc2=O)C2(CCCC2)C1)N1CCNC[C@H]1c1ccccc1 [Example 351, 6-(4,4-Difluoro-piperidin-1-yl)-3-(((S)-10-hydroxy-7-((R)-2-phenylpiperazine-1-carbonyl)-7-aza-spiro[4.5]decan-10-yl)methyl)pyrimidin-4(3H)-one] | < 500 nM |
| O=C(N1CC[C@@](O)(Cn2cnc(N3CC4CC4C3)cc2=O)C2(CCCC2)C1)N1CCNC[C@H]1c1ccccc1 (stereo partly drawn) [Example 352, 6-(3-Aza-bicyclo[3.1.0]hexan-3-yl)-3-(((S)-10-hydroxy-7-((R)-2-phenylpiperazine-1-carbonyl)-7-aza-spiro[4.5]decan-10-yl)methyl)pyrimidin-4(3H)-one] | < 500 nM |
| O=C(N1CC[C@@](O)(Cn2cnc(-c3ccc4c(c3)OCC4)cc2=O)C2(CCCC2)C1)N1CCNC[C@H]1c1ccccc1 [Example 353, 6-(2,3-Dihydrobenzofuran-6-yl)-3-(((S)-10-hy-droxy-7-((R)-2-phenylpiperazine-1-carbonyl)-7-aza-spiro[4.5]decan-10-yl)methyl)pyrimidin-4(3H)-one] | < 500 nM |
| O=C(N1CC[C@@](O)(Cn2cnc(-c3ccccc3OC(F)(F)F)cc2=O)C2(CCCC2)C1)N1CCNC[C@H]1c1ccccc1 [Example 354, 3-(((S)-10-Hydroxy-7-((R)-2-phenylpiperazine-1-carbonyl)-7-azaspiro[4.5]decan-10-yl)methyl)-6-(2-(trifluorometh-oxy)phenyl) pyrimidin-4(3H)-one] | < 500 nM |

Further lines, results first:

| IC50 | Structure (SMILES) |
| --- | --- |
| < 500 nM | O=C(N1CC[C@@](O)(Cn2cnc(-c3ccccc3)cc2=O)C2(CCCC2)C1)N1CCNCC1c1ccsc1 (stereo partly drawn) [Example 337, 3-(((10S)-10-Hydroxy-7-(2-(thiophen-3-yl)piperazine-1-carbonyl)-7-azaspiro[4.5]decan-10-yl)methyl)-6-phenylpyrimidin-4(3H)-one] |
| < 500 nM | COc1ccc(-c2cc(=O)n(C[C@]3(O)CCN(C(=O)N4CCNC[C@H]4c4ccccc4)CC34CCCC4)cn2)cc1 [Example 339, 3-(((S)-10-Hydroxy-7-((R)-2-phenylpiperazine-1-carbonyl)-7-azaspiro[4.5]decan-10-yl)methyl)-6-(4-methoxyphenyl) pyrimidin-4(3H)-one] |
| < 500 nM | Cc1cccc(-c2cc(=O)n(C[C@]3(O)CCN(C(=O)N4CCNC[C@H]4c4ccccc4)CC34CCCC4)cn2)c1 [Example 341, 3-(((S)-10-Hydroxy-7-((R)-2-phenylpiperazine-1-carbonyl)-7-azaspiro[4.5]decan-10-yl)methyl)-6-(m-tolyl)pyrimidin-4(3H)-one] |
| < 500 nM | Cc1ccc(-c2cc(=O)n(C[C@]3(O)CCN(C(=O)N4CCNC[C@H]4c4ccccc4)CC34CCCC4)cn2)cc1 [Example 342, 3-(((S)-10-Hydroxy-7-((R)-2-phenylpiperazine-1-carbonyl)-7-azaspiro[4.5]decan-10-yl)methyl)-6-(p-tolyl)pyrimidin-4(3H)-one] |
| < 500 nM | O=C(N1CC[C@@](O)(Cn2cnc(-c3cccs3)cc2=O)C2(CCCC2)C1)N1CCNC[C@H]1c1ccccc1 [Example 343, 3-(((S)-10-Hydroxy-7-((R)-2-phenylpiperazine-1-carbonyl)-7-azaspiro[4.5]decan-10-yl)methyl)-6-(thiophen-2-yl)pyri-midin-4(3H)-one] |
| < 500 nM | O=C(N1CC[C@@](O)(Cn2cnc(-c3ccsc3)cc2=O)C2(CCCC2)C1)N1CCNC[C@H]1c1ccccc1 [Example 344, 3-(((S)-10-Hydroxy-7-((R)-2-phenylpiperazine-1-carbonyl)-7-azaspiro[4.5]decan-10-yl)methyl)-6-(thio-phen-3-yl)pyrimidin-4(3H)-one] |
| < 500 nM | O=C(N1CC[C@@](O)(Cn2cnc(-c3ccc(Cl)cc3)cc2=O)C2(CCCC2)C1)N1CCNC[C@H]1c1ccccc1 [Example 349, 6-(4-Chlorophenyl)-3-(((S)-10-hydroxy-7-((R)-2-phenylpiperazine-1-carbonyl)-7-aza-spiro[4.5]decan-10-yl)methyl)pyrimidin-4(3H)-one] |
